Columns and labels:
Format in all cases: in vivo, Helianthus annuus
[1] = test system: sunflower TH1 (Hybrid, A205V); assay: Greenhouse whole-plant imazapir dose response (Example 8); settings: 14 DAT
Description: (§1) A greenhouse study was conducted to quantify and contrast the imazapir sensitivity of the mutants A122T and A205V in different genetic backgrounds at the whole plant level in sunflower. Seeds of the different sunflower lines that were used in this study were obtained under field conditions.
(§2) Seeds were sown in Petri dishes and, after germination, plantlets were transplanted to pots of 10 cm of diameter in a potting media consisting of equal parts of vermiculite, soil and sand. Plants were grown in a greenhouse under natural light conditions supplemented with 400 W sodium halide lamps to provide a 16 hrs daylength. Day/night temperatures were 25 and 20° C., respectively. At the V2 stage 10 plants of each genotype were randomly assigned to each treatment consisting of […] imazapir doses (0, 40, 80, 160, 240, 320, 400 and 480 g ai/ha), and a zero-time biomass determination. Experiment was arranged as a randomized block design with a full factorial (sunflower line×treatment) arrangement of treatments and 10 replications.
(§3) On the day of herbicide application ten plants of each genotype were cut at the cotyledonal node and dried at 60° C. for 48 hrs zero-time for dried weight determination. […] Height was determined as the distance between the cotyledonal node and the apex of each plant. For root biomass determination, each plant was taken from the pot and the potting media was washed out from the roots. Above ground biomass data from each line were converted to biomass accumulation after application by subtracting the appropriate average zero-time biomass from each sample. Dry biomass data were converted to percentages of the untreated control plants within each line to allow direct comparisons between groups.

[2] = test system: sunflower TH9 (Hybrid, A205V); assay: as above; settings: 14 DAT
Description: as §1, §2, §3

[3] = test system: M2 plants of EMS-treated BTK47; assay: Selection of imidazolinone-resistant M2 plants (Example 1); settings: approximately 590,000 M2 plants sprayed at V2-V4 stage; 80 g ai/ha; greenhouse
Description: BTK47, a Helianthus annuus L. breeding line, was chemically mutated as follows. Sixty thousand seeds of the BTK47 line were treated with a solution of ethyl methanesulfonate (EMS) for 15 hours. The treated seeds were then sown under field conditions on Dec. 16, 2002 at Nidera Experimental Station in Venado Tuerto, Santa Fe, Argentina. Approximately 30,000 M1 plants flowered and were covered with bags in order to self-pollinate each plant. Each plant was harvested and threshed by hand. On May 10, 2003 at Nidera Experimental Station in Formosa, 20 M2 seeds from each capitulum were sown under greenhouse conditions. Approximately 590,000 plants were sprayed at V2-V4 stage with imazapyr at a rate of 80 g ai/ha. […] M3 seeds from each of these eight plants were evaluated for their resistance to imazapyr. Out of these eight M3 families, one family (S4897) segregated for herbicide resistance at a ratio of 1 resistant (i.e., conferring tolerance to commercial rates of imidazolinone herbicides): 2 intermediate (i.e., partially resistant): 1 susceptible. Fully fertile resistant plants were self pollinated and harvested in order to propagate the line S4897.

CC(C)C1(C)N=C(c2ncccc2C(=O)O)NC1=O (centres unmarked) [imazapir, imazapyr]
root dry weight (% of untreated) ([1]; 1× (80 g ai/ha)): 70.7%
Phytotoxicity Index ([1]; 2× (160 g ai/ha)): 1.8
biomass accumulation (dry biomass, % of untreated) ([1]; 2× (160 g ai/ha)): 75.5%
plant height (% of untreated) ([1]; 2× (160 g ai/ha)): 78.6%
root dry weight (% of untreated) ([1]; 2× (160 g ai/ha)): 69.6%
Phytotoxicity Index ([1]; 3× (240 g ai/ha)): 6.4
biomass accumulation (dry biomass, % of untreated) ([1]; 3× (240 g ai/ha)): 60.4%
plant height (% of untreated) ([1]; 3× (240 g ai/ha)): 48.4%
root dry weight (% of untreated) ([1]; 3× (240 g ai/ha)): 42.3%
Phytotoxicity Index ([1]; 4× (320 g ai/ha)): 8.0
biomass accumulation (dry biomass, % of untreated) ([1]; 4× (320 g ai/ha)): 46.5%
plant height (% of untreated) ([1]; 4× (320 g ai/ha)): 28.9%
root dry weight (% of untreated) ([1]; 4× (320 g ai/ha)): 38.6%
Phytotoxicity Index ([1]; 5× (400 g ai/ha)): 8.9
biomass accumulation (dry biomass, % of untreated) ([1]; 5× (400 g ai/ha)): 38.9%
plant height (% of untreated) ([1]; 5× (400 g ai/ha)): 25.3%
root dry weight (% of untreated) ([1]; 5× (400 g ai/ha)): 34.7%
Phytotoxicity Index ([1]; 6× (480 g ai/ha)): 9.0
biomass accumulation (dry biomass, % of untreated) ([1]; 6× (480 g ai/ha)): 33.9%
plant height (% of untreated) ([1]; 6× (480 g ai/ha)): 27.1%
root dry weight (% of untreated) ([1]; 6× (480 g ai/ha)): 23.1%
Phytotoxicity Index ([2]; 0.5× (40 g ai/ha)): 0
biomass accumulation (dry biomass, % of untreated) ([2]; 0.5× (40 g ai/ha)): 91.7%
plant height (% of untreated) ([2]; 0.5× (40 g ai/ha)): 100.0%
root dry weight (% of untreated) ([2]; 0.5× (40 g ai/ha)): 81.5%
Phytotoxicity Index ([2]; 1× (80 g ai/ha)): 0
biomass accumulation (dry biomass, % of untreated) ([2]; 1× (80 g ai/ha)): 81.7%
plant height (% of untreated) ([2]; 1× (80 g ai/ha)): 100.0%
root dry weight (% of untreated) ([2]; 1× (80 g ai/ha)): 84.9%
Phytotoxicity Index ([2]; 2× (160 g ai/ha)): 1.6
biomass accumulation (dry biomass, % of untreated) ([2]; 2× (160 g ai/ha)): 54.7%
plant height (% of untreated) ([2]; 2× (160 g ai/ha)): 78.9%
root dry weight (% of untreated) ([2]; 2× (160 g ai/ha)): 58.8%
Phytotoxicity Index ([2]; 3× (240 g ai/ha)): 5.1
biomass accumulation (dry biomass, % of untreated) ([2]; 3× (240 g ai/ha)): 35.7%
plant height (% of untreated) ([2]; 3× (240 g ai/ha)): 50.0%
root dry weight (% of untreated) ([2]; 3× (240 g ai/ha)): 34.1%
Phytotoxicity Index ([2]; 4× (320 g ai/ha)): 8.4
biomass accumulation (dry biomass, % of untreated) ([2]; 4× (320 g ai/ha)): 25.3%
plant height (% of untreated) ([2]; 4× (320 g ai/ha)): 38.1%
root dry weight (% of untreated) ([2]; 4× (320 g ai/ha)): 27.3%
Phytotoxicity Index ([2]; 5× (400 g ai/ha)): 8.9
biomass accumulation (dry biomass, % of untreated) ([2]; 5× (400 g ai/ha)): 19.8%
plant height (% of untreated) ([2]; 5× (400 g ai/ha)): 31.8%
root dry weight (% of untreated) ([2]; 5× (400 g ai/ha)): 29.9%
Phytotoxicity Index ([2]; 6× (480 g ai/ha)): 8.9
biomass accumulation (dry biomass, % of untreated) ([2]; 6× (480 g ai/ha)): 19.5%
plant height (% of untreated) ([2]; 6× (480 g ai/ha)): 34.7%
root dry weight (% of untreated) ([2]; 6× (480 g ai/ha)): 22.1%
plants surviving the herbicide treatment [3]: Eight plants survived
